# In article PMC11510591, “In Vitro Evaluation of Pharmacokinetic Properties of Selected Dual COX-2 and 5-LOX Inhibitors” (Pharmaceuticals, 2024):
# Legend:
# [1] = system: CD-1 mouse liver microsomes; settings: pH 7.4; for Peak Area, t0: 0 min
# Protocol: Microsomal stability (and thus susceptibility to metabolism) was tested using microsomes derived from CD-1 mouse liver. According to the applied protocol, both phases of metabolism were activated by the addition of cofactors NADPH and UDP-GlcUA. […] Stock solutions of all tested compounds (5 mM DMSO solutions) were diluted with 0.1 M potassium phosphate buffer pH 7.4 to obtain 0.1 mM solutions, which were further incubated according to the protocol. In order to activate both the 1st and 2nd phases of metabolism, NADPH and UDP-GlcUA were used as cofactors. Tested compounds were incubated at 37 °C for 30 min, and the incubation was quenched immediately after the addition of cofactors (t0) and after the defined incubation time (t) by mixing 100 µL of corresponding incubation mixtures with 200 µL of cold acetonitrile. All compounds were tested in duplicates, and their concentrations were determined using the HPLC-MS/MS method (Section 3.7.1).
# The HPLC-MS/MS analysis was performed on the UHPLC chromatograph ACELLA (Thermo Fisher Scientific Inc., Madison, WI, USA), coupled to a triple quadrupole mass spectrometer TSQ Quantum Access MAX (Thermo Fisher Scientific Inc., Madison, WI, USA) with a heated electrospray ionization (HESI) interface. The column used was Zorbax Extend C18 (150 mm × 4.6 mm, 5 µm; Agilent Technologies), which was thermostated at 25 °C. The mobile phase consisted of acetonitrile and 0.1% formic acid (60:40, v/v), with a flow rate of 500 µL/min. The injection volume was 10 µL.
# zebrafish embryos = system: zebrafish embryos; parameters: method as in PMID 38931946; settings: at therapeutic doses; cited from earlier work
# [2] = biological target: T1, human serum albumin (HSA) (Homo sapiens, UniProt P02768); format: binding; settings: CHIRALPAK HSA column, ammonium acetate buffer pH 7.0/acetonitrile 85:15, 25 °C
# T1 construct: purchased Sigma-Aldrich
# Protocol: Recently, interactions of many newly synthesized structurally diverse compounds with HSA were successfully studied using this technique. The degree of binding of the tested compounds to HSA was evaluated based on their retention behavior on the stationary phase modified with HSA. The logarithmic values of retention factors (logk) were used to evaluate indirectly and compare the drug–HSA interaction.
# HPAC analysis was performed on an Agilent 1200 Series chromatograph (Agilent Technologies, Santa Clara, CA, USA). […] The mobile phase consisted of ammonium acetate buffer (pH 7.0; 0.01 M) and acetonitrile (85:15, v/v). The flow rate was 0.6 mL/min, the temperature was set to 25 °C, and the detection of tested compounds was carried out at 283 nm. Tested compounds were dissolved in DMSO (at a concentration of 1 mg/mL), further diluted with the mobile phase to a final concentration of 0.05 mg/mL, and analyzed in triplicate. The HPAC conditions were selected not only with the aim of achieving satisfactory retention characteristics of all synthesized compounds but also taking into account recommendations of a column manufacturer. Retention factors were calculated using Equation (1), where t0 (column dead time) was the retention time of DMSO at 220 nm.
# T1 sequence (P02768 25-609): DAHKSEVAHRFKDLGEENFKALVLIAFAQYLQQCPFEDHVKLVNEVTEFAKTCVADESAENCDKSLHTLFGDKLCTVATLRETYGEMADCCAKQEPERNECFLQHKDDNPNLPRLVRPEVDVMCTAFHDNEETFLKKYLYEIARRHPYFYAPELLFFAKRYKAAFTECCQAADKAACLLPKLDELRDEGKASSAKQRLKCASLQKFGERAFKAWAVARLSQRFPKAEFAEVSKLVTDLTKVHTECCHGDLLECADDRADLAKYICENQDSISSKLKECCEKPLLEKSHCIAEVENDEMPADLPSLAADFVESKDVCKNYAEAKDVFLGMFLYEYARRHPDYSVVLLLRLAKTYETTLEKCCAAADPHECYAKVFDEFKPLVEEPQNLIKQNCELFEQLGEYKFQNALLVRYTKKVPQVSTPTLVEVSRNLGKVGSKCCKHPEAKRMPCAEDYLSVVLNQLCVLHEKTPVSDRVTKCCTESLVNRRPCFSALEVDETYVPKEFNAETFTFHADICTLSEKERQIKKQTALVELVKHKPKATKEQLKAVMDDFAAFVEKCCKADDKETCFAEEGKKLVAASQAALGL
SMILES,"Peak Area, t0 [1]","Peak Area, t ([1]; 30 min)",The Decrease in Peak Area (%) ([1]; 30 min),toxic effects on zebrafish embryos (zebrafish embryos),Retention Factors (logk) [2]
COc1ccc2c(c1)c(CNC(=O)NO)c(C)n2C(=O)c1ccc(Cl)cc1 [Compound 1],131.5 ± 16.8 ×10^3,60.5 ± 6.4 ×10^3,,,
CC(NC(=O)NO)c1ccc(-c2ccccc2)c(F)c1 (stereo not shown) [Compound 2],16.5 ± 3.1 ×10^3,9.6 ± 3.0 ×10^3,41.65 (p = 0.0034) %,,
O=C(NO)NCc1ccccc1Nc1c(Cl)cccc1Cl [Compound 3],1033.6 ± 42.5 ×10^3,455.5 ± 8.9 ×10^3,,did not show toxic effects,
CC(=O)N(O)C(C)c1ccc(CC(C)C)cc1 (stereo not shown) [Compound 11],60.0 ± 1.4 ×10^3,44.6 ± 1.9 ×10^3,,,
COc1ccc2cc(C(C)N(O)C(C)=O)ccc2c1 (stereo not shown) [Compound 12],43.9 ± 3.2 ×10^3,18.2 ± 0.1 ×10^3,,,2.03 ± 0.02
